# Data taken from patent publication US9433596B2, “Pharmaceutical composition comprising N-acetyl-L-cysteine or its derivatives for treating anxiety disorder” (SNU R&DB FOUNDATION, priority 2010, dated 2016).
# Experiments:
# Sprague-Dawley Rats [1] = assay: Fear memory renewal test, NAC administered immediately before the renewal test; format: in vivo; conditions: NAC 200 mg/kg peritoneally 2.5 hours before the renewal test on the 7th and 8th day, result on the 8th day after fear conditioning, vs control
# Method: Sprague-Dawley Rats (8-9 weeks old, from Samtaco, Korea) were maintained with free access to water and food with 12 hour dark/light cycles (lights off at 09:00 hrs). Group of three to six animals were used for each experiment. (26 in total) For fear conditioning, the rats were presented with a tone (2.8 kHz, 85 dB) co-terminating with an electrical shock (1.0 mA, 1 s) three times at an interval of 100 sec. The rats were returned to the cage 1 minute after the last shock has been applied. Three days after the conditioning, the exposure therapy was done in a chamber distinct from the conditioning chamber for both extinction training and tone tests. 10 tones were presented at an interval of 100 sec without shocks, during which the freezing responses were measured to determine the reduction of fear memories. Unpaired, two-tailed T-test was used to analyze the results. The renewal test was done on day 12 after the conditioning was completed. The same chamber and place as it was used for the fear conditioning were used for the renewal. […] The fear memory recalled was determined by measuring the freezing response as described before (Kim et al., 2007, PNAS 104 (52): 20955-960). The freezing was defined as immobility except for respiratory movements and was quantified by trained observers who were blind to the experimental groups. […]
# [2] = cited from earlier work
# Sprague-Dawley Rats [3] = assay: Fear memory renewal test, NAC administered during extinction training (exposure therapy); format: in vivo; conditions: NAC 200 mg/kg peritoneally once a day, days 3 to 5 after conditioning, 2.5 hours before exposure therapy, renewal tests on day 12 and day 21, vs saline control
# Method: Sprague-Dawley Rats (8-9 weeks old, from Samtaco, Korea) were maintained with free access to water and food with 12 hour dark/light cycles (lights off at 09:00 hrs). Group of three to six animals were used for each experiment. (26 in total) For fear conditioning, the rats were presented with a tone (2.8 kHz, 85 dB) co-terminating with an electrical shock (1.0 mA, 1 s) three times at an interval of 100 sec. The rats were returned to the cage 1 minute after the last shock has been applied. Three days after the conditioning, the exposure therapy was done in a chamber distinct from the conditioning chamber for both extinction training and tone tests. 10 tones were presented at an interval of 100 sec without shocks, during which the freezing responses were measured to determine the reduction of fear memories. Unpaired, two-tailed T-test was used to analyze the results. […] The negative control was only received physiological saline. The renewal test was done on day 12 after the conditioning was completed. The same chamber and place as it was used for the fear conditioning were used for the renewal. […] The fear memory recalled was determined by measuring the freezing response as described before (Kim et al., 2007, PNAS 104 (52): 20955-960). The freezing was defined as immobility except for respiratory movements and was quantified by trained observers who were blind to the experimental groups. […]
# Sprague-Dawley Rats [4] = assay: Fear memory renewal test, NAC administered one day before the renewal test; format: in vivo; conditions: NAC 200 mg/kg peritoneally on the 7th day after 4 days of extinction training, result on the 9th day after fear conditioning, vs control
# Method: Sprague-Dawley Rats (8-9 weeks old, from Samtaco, Korea) were maintained with free access to water and food with 12 hour dark/light cycles (lights off at 09:00 hrs). Group of three to six animals were used for each experiment. (26 in total) For fear conditioning, the rats were presented with a tone (2.8 kHz, 85 dB) co-terminating with an electrical shock (1.0 mA, 1 s) three times at an interval of 100 sec. The rats were returned to the cage 1 minute after the last shock has been applied. Three days after the conditioning, the exposure therapy was done in a chamber distinct from the conditioning chamber for both extinction training and tone tests. 10 tones were presented at an interval of 100 sec without shocks, during which the freezing responses were measured to determine the reduction of fear memories. Unpaired, two-tailed T-test was used to analyze the results. The renewal test was done on day 12 after the conditioning was completed. The same chamber and place as it was used for the fear conditioning were used for the renewal. The rats with the extinction training were placed in the conditioning chamber and were left undisturbed for 10 minutes. Then the fear memory was recalled by presenting the rats with a tone for 30 sec. […] The freezing was defined as immobility except for respiratory movements and was quantified by trained observers who were blind to the experimental groups. […]
# [5] = general statement, no test described; cited from earlier work
structure (smiles),measurement,setting,value
"CC(=O)N[C@@H](CS)C(=O)O [NAC, N-acetyl-L-cysteine]",renewal of the fear memory (freezing response),Sprague-Dawley Rats [1]; FIG. 6,the renewal of the fear memory was blocked
same,renewal of the fear memory (freezing response),"Sprague-Dawley Rats [1]; FIG. 6, listed as N-Acetyl-L-cysteine",prevented the return of fear-memories
same,pKa,[2],3.24
same,renewal of the fear memory (freezing response),Sprague-Dawley Rats [3]; FIG. 2,the renewal of the fear memory was blocked
same,renewal of the fear memory (freezing response),"Sprague-Dawley Rats [3]; FIG. 2, listed as N-Acetyl-L-cysteine",the return of fear-memories was prevented and the effect was long-lasted
same,renewal of the fear memory (freezing response),Sprague-Dawley Rats [4]; FIG. 4,the renewal of the fear memory was blocked
same,renewal of the fear memory (freezing response),"Sprague-Dawley Rats [4]; FIG. 4, listed as N-Acetyl-L-cysteine",the return of fear-memories was prevented
same,blood-brain barrier penetration,[5],penetrate a blood-brain barrier
